Measurements: article PMC12435366, “Maleic anhydride derived diphosphines: adaptable chelators for receptor-targeted ^99mTc, ^64Cu and ^188Re radiotracers” (Chemical Science, 2025)

Test system: parental DU145 cells that do not express PSMA
Assay: In vitro uptake of 99mTc tracers in parental DU145 cells
Assay type: cell-based
Conditions: PSMA-negative DU145 cells, 1 h
Method: To compare the relative uptake and specificity of the new radiotracers for PSMA, [^99mTcO2(DP^Ph-PSMAt)2]^+, [^99mTcO2(DP^An-PSMAt)2]^+ and [^99mTcO2(DP^MEP-PSMAt)2]^+ (50 kBq) were purified from unreacted ^99mTc precursors and excess DP-PSMAt peptide, and each incubated with PSMA-expressing DU145-PSMA+ prostate cancer cells[33] or LNCaP prostate cancer cells (5 × 10^5 cells). After 1 h incubation, uptake of each radiotracer was quantified. […]
4.9 99mTc uptake in DU145, DU145-PSMA+ and LNCaP cells
The following experiment was performed in biological triplicate.
A panel of cell lines were selected that either expressed GCP(II)/PSMA (DU145-PSMA+ (genetically modified to express PSMA),12 and LNCaP (CRL‐1740)), or had low GCP(II)/PSMA expression (DU145 (HTB-81)). All cell lines were cultured in RPMI 1640 medium (R0883, Sigma) containing 10% foetal bovine serum, 2 mM L-glutamine, and 100 U mL−1 penicillin and 100 µg mL−1 streptomycin. Cells were maintained at 37 °C and 5% CO 2. Cells were seeded in 6-well plates at a density of 5 × 10^5 cells per well […]
in 2 mL complete media to achieve 70–80% confluency the following day. […] The cells were lysed with ice cold radioimmunoprecipitation assay buffer (RIPA buffer, 500 μL; 150 mM sodium chloride, 0.1% w/w sodium dodecyl sulfate (SDS), 0.5% w/w sodium deoxycholate (NaDOC), 1% w/w Triton-X) and samples were collected for radioactivity counting. […]

Row | SMILES | uptake in parental DU145 cells
1 | COc1ccc(P(/C(C(=O)O)=C(/C(=O)NCCOCCOCCOCCOCCC(=O)NCCCC[C@H](NC(=O)N[C@@H](CCC(=O)O)C(=O)O)C(=O)O)P(c2ccc(OC)cc2)c2ccc(OC)cc2)c2ccc(OC)cc2)cc1 [[^99mTcO2(DP^An-PSMAt)2]^+, metal not drawn] | negligible uptake
2 | COCCOc1ccc(P(/C(C(=O)O)=C(/C(=O)NCCOCCOCCOCCOCCC(=O)NCCCC[C@H](NC(=O)N[C@@H](CCC(=O)O)C(=O)O)C(=O)O)P(c2ccc(OCCOC)cc2)c2ccc(OCCOC)cc2)c2ccc(OCCOC)cc2)cc1 [[^99mTcO2(DP^MEP-PSMAt)2]^+, metal not drawn] | negligible uptake
